# Patent publication US10450288B2, “Hydroxy formamide derivatives and their use” (GLAXOSMITHKLINE INTELLECTUAL PROPERTY (NO.2) LIMITED, priority 2014, dated 2019)
# System: human cardiac fibroblasts
# Assay: Cell-based inhibition assay of generation of procollagen I C-terminal propeptide (PICP), PICP ELISA
# Conditions: Cardiac fibroblast; human cardiac fibroblasts, crowding media, 24 to 48 hr, PICP ELISA of media; read-out: pIC50, PICP cellular inhibition assay (converted)
# Protocol: Cell-Based Inhibition Assay of Generation of Procollagen I C-Terminal Propeptide (PICP) and Mature Collagen:
# An adaptation of the collagen deposition assay described by Chen, C. Z. C., et al., British Journal of Pharmacology, 2009, 158, 1196-1209 was used to examine effect of compounds on procollagen I processing and collagen deposition. In the adapted assay, human cardiac fibroblasts were utilized. Processing of procollagen I was determined by a PICP ELISA assay and deposition of mature collagen was determined by immunostaining.
# Human cardiac fibroblasts were cultured and maintained until passage 6 in FGM-3 media (Lonza, #CC-3132) in a 37° C. humidified incubator with 5% CO2. They were then seeded in 96-well black wall, clear bottom plates at 10,000 to 15,000 cells per well in eagle's minimum essential media (EMEM, ATCC #30-2003) containing 10% fetal bovine serum (FBS, Life Technologies #10082147), 1% Glutamax (Life Technologies #35050061) and 1% Penicillin and Streptomycin (Life Technologies #15070063). These cultures were placed in 37° C. incubator. The next day, media were removed by aspiration and cells were rinsed with phosphate buffered saline. Crowding media (also called ficoll media) was prepared by adding 112.5 mg/ml of ficoll70 and 75 mg/ml ficoll400 (GE healthcare #17-0310-10 and 17-0300-10, respectively), 100 μM ascorbic acid, 1% Glutamax and 1% Penicillin and Streptomycin to EMEM media. Test compounds (dissolved in DMSO) were diluted into crowding media and then added to the cells. Final concentration of DMSO in crowding media was less than 0.3%. Cells were treated for 24 to 48 hr in a 37° C. incubator. At the end of the treatment period, cell media were collected. The level of PICP in the media were determined by a PICP ELISA assay (Quidel #8003) following the manufacturer's protocol. Potencies of test compounds were calculated by fitting PICP levels, relative to untreated controls, to log (inhibitor) vs. response equation using Graphpad Prism software 5.0 and expressed as pIC50.
row,Compound,IC50 [µM]
1,"CCCCC[C@H](CN(O)C=O)C(=O)NCNC(=O)c1ccc(-c2cc(OC)cc(OC)c2)o1 [Example 52, (R)-5-(3,5-dimethoxyphenyl)-N-((2-((N-hydroxyformamido)methyl)heptanamido)methyl)furan-2-carboxamide]",< 3.98
2,"CCCCC[C@H](CN(O)C=O)C(=O)NCNC(=O)c1ccc(-c2cc(OC)ccc2OC)o1 [Example 53, (R)-5-(2,5-dimethoxyphenyl)-N-((2-((N-hydroxyformamido)methyl)heptanamido)methyl)furan-2-carboxamide]",< 3.98
3,"CCCCC[C@H](CN(O)C=O)C(=O)NCNC(=O)c1ccc(-c2cccc(C(=O)O)c2OC)o1 [Example 55, (R)-3-(5-(((2-((N-hydroxyformamido)methyl)heptanamido)methyl)carbamoyl)furan-2-yl)-2-methoxybenzoic acid]",< 3.98
4,"CCCCC[C@H](CN(O)C=O)C(=O)NCNC(=O)c1ccc(-c2cccc(C(=O)O)c2F)o1 [Example 59, (R)-2-fluoro-3-(5-(((2-((N-hydroxyformamido)methyl)heptanamido)methyl)carbamoyl)furan-2-yl)benzoic acid]",< 3.98
5,"CCCCC[C@H](CN(O)C=O)C(=O)NCNC(=O)c1ccc(-c2cccc(CC(=O)O)c2)o1 [Example 60, (R)-2-(3-(5-(((2-((N-hydroxyformamido)methyl)heptanamido)methyl)carbamoyl)furan-2-yl)phenyl)acetic acid]",< 3.98
6,"CCCCC[C@H](CN(O)C=O)C(=O)NCNC(=O)c1ccc(-c2cccc(C(=O)O)c2C)o1 [Example 61, (R)-3-(5-(((2-((N-hydroxyformamido)methyl)heptanamido)methyl)carbamoyl)furan-2-yl)-2-methylbenzoic acid]",< 3.98
7,"CCCCC[C@H](CN(O)C=O)C(=O)NCNC(=O)c1ccc(-c2ccc(O)c(C(=O)O)c2)o1 [Example 62, (R)-2-hydroxy-5-(5-(((2-((N-hydroxyformamido)methyl)heptanamido)methyl)carbamoyl)furan-2-yl)benzoic acid]",< 3.98
8,"CCCCC[C@H](CN(O)C=O)C(=O)NCNC(=O)c1ccc(-c2ccc(N)c(C(=O)O)c2)o1 [Example 64, (R)-2-amino-5-(5-(((2-((N-hydroxyformamido)methyl)heptanamido)methyl)carbamoyl)furan-2-yl)benzoic acid]",< 3.98
9,"CCCCC[C@@H](C(=O)NCNC(=O)c1ccc(-c2cccc(C(C)(C)C(=O)O)c2)o1)[C@@H](CC)N(O)C=O [Example 67, 2-(3-(5-((((R)-2-((R)-1-(N-hydroxyformamido)propyl)heptanamido)methyl)carbamoyl)furan-2-yl)phenyl)-2-methylpropanoic acid]",< 3.98

# Same assay, conditions: Homo sapiens, Cardiac fibroblast, read-out: pIC50, PICP cellular inhibition assay (converted)
row,Compound,IC50 [µM]
1,"CCCCC[C@@H](C(=O)NCNC(=O)c1ccc(-c2cc(OCC)cc(C(=O)NCC[N+](C)(C)C)c2)o1)[C@@H](CC)N(O)C=O [Example 65, 2-(3-ethoxy-5-(5-((((R)-2-((R)-1-(N-hydroxyformamido)propyl)heptanamido)methyl)carbamoyl)furan-2-yl)benzamido)-N,N,N-trimethylethanaminium hydroxide]",< 3.98
2,"CCCCC[C@@H](C(=O)NCNC(=O)c1ccc(-c2ccc(F)c(CC(=O)O)c2)o1)[C@@H](CC)N(O)C=O [Example 70, 2-(2-fluoro-5-(5-((((R)-2-((R)-1-(N-hydroxyformamido)propyl)heptanamido)methyl)carbamoyl)furan-2-yl)phenyl)acetic acid]",< 3.98
3,"CCCCC[C@@H](C(=O)NCNC(=O)c1ccc(-c2ccc(C(=O)O)cc2)o1)[C@@H](CC)N(O)C=O [Example 71, 4-(5-((((R)-2-((R)-1-(N-hydroxyformamido)propyl)heptanamido)methyl)carbamoyl)furan-2-yl)benzoic acid]",< 3.98
4,"CCCCC[C@@H](C(=O)NCNC(=O)c1ccc(-c2cc(CC(=O)O)cc(OCC)c2)o1)[C@@H](CC)N(O)C=O [Example 72, 2-(3-ethoxy-5-(5-((((R)-2-((R)-1-(N-hydroxyformamido)propyl)heptanamido)methyl)carbamoyl)furan-2-yl)phenyl)acetic acid]",< 3.98
